The record followed here is ChEMBL document CHEMBL1629637, “In vitro activities of tigecycline, minocycline, and colistin-tigecycline combination against multi- and pandrug-resistant clinical isolates of Acinetobacter baumannii group” (Antimicrob Agents Chemother, 2009).

Values after ≈ are worked out from the molar mass of the structure shown.

The test system of data set [1] is Acinetobacter baumannii. The experiment in a line: Antibacterial activity against imipenem-susceptible Acinetobacter baumannii clinical isolates assessed as percent susceptible isolates by broth microdilution method. In kind it is functional.
For data set [2], the system named is Acinetobacter baumannii. The experiment in a line: Antibacterial activity against colistin-resistant Acinetobacter baumannii clinical isolates by broth microdilution method. The class given is functional. Background: Dilution methods test growth across graded concentrations, often in twofold steps.
The test system of data set [3] is Acinetobacter baumannii. The experiment in a line: Antibacterial activity against all antibiotic-resistant Acinetobacter baumannii clinical isolates assessed as percent susceptible isolates by broth microdilution method. The class given is functional.
In data set [4] the test system is Acinetobacter baumannii. The data set is described as follows: Antibacterial activity against colistin-resistant Acinetobacter baumannii clinical isolates assessed as percent susceptible isolates by broth microdilution method. In kind it is functional.
The subject of data set [5] is Acinetobacter baumannii. The experiment in a line: Antibacterial activity against colistin-susceptible Acinetobacter baumannii clinical isolates assessed as percent susceptible isolates by broth microdilution method. In kind it is functional.
Data set [6] concerns Acinetobacter baumannii. The data set is described as follows: Antibacterial activity against extensively drug-resistant Acinetobacter baumannii clinical isolates assessed as percent susceptible isolates by broth microdilution method. In kind it is functional.
The test system of data set [7] is Acinetobacter baumannii. The data set is described as follows: Antibacterial activity against colistin-susceptible Acinetobacter baumannii clinical isolates by broth microdilution method. The class given is functional.
Data set [8] has as its system Acinetobacter baumannii. The data set is described as follows: Antibacterial activity against pandrug-resistant Acinetobacter baumannii clinical isolates by broth microdilution method. In kind it is functional.
Data set [9] has as its system Acinetobacter baumannii. The experiment in a line: Antibacterial activity against imipenem-susceptible Acinetobacter baumannii clinical isolates by broth microdilution method. The class given is functional.
A short description of data set [10]: Cmax in human serum at […], iv bolus dose followed by dose regimen of […] every 12 hrs. In kind it is ADME, organism-based. The arrangement: route intravenous.
For data set [11], the system named is Acinetobacter baumannii. The experiment in a line: Antibacterial activity against extensively drug-resistant Acinetobacter baumannii clinical isolates by broth microdilution method. In kind it is functional.
Setting [12] is: Acinetobacter baumannii, read-out: MIC90.

In general, MIC50 refers to an inhibitory concentration at the 50% level, which refers to growth in some studies and to a panel of isolates in others. In general, MIC90 refers to an inhibitory concentration at the 90% level, which refers to growth in some studies and to a panel of isolates in others. For `CN(C)c1ccc(O)c2c1C[C@H]1C[C@H]3[C@H](N(C)C)C(O)=C(C(N)=O)C(=O)[C@@]3(O)C(O)=C1C2=O` [MINOCYCLINE], the MIC50 in the data set with Acinetobacter baumannii [1] worked out at 4 µg/mL (≈ 8.74 µM); in the data set with Acinetobacter baumannii [3], 8 µg/mL (≈ 17.5 µM); in the data set with Acinetobacter baumannii [6], 8 µg/mL (≈ 17.5 µM); against Acinetobacter baumannii [7], 8 µg/mL (≈ 17.5 µM). Also, the MIC90 was found to be 8 µg/mL (≈ 17.5 µM) in the data set on Acinetobacter baumannii [1]; 8 µg/mL (≈ 17.5 µM) in the data set with Acinetobacter baumannii [2]; 16 µg/mL (≈ 35 µM) with Acinetobacter baumannii [2] (setting [12]); 16 µg/mL (≈ 35 µM) with Acinetobacter baumannii [3]; 16 µg/mL (≈ 35 µM) in the data set on Acinetobacter baumannii [6]. Besides, the Activity in the data set with Acinetobacter baumannii [4] came out at 49.4%; with Acinetobacter baumannii [5], 18%.

By Cmax is commonly meant the highest concentration seen after dosing. As to `CN(C)c1cc(NC(=O)CNC(C)(C)C)c(O)c2c1C[C@H]1C[C@H]3[C@H](N(C)C)C(O)=C(C(N)=O)C(=O)[C@@]3(O)C(O)=C1C2=O` [TIGECYCLINE], the MIC90 in the data set on Acinetobacter baumannii [2] (setting [12]), against Acinetobacter baumannii [8], with Acinetobacter baumannii [9] and against Acinetobacter baumannii [11] was 2 µg/mL (≈ 3.41 µM) in each case. Further, the MIC50 in the data set on Acinetobacter baumannii [8], against Acinetobacter baumannii [9], with Acinetobacter baumannii [11] and against Acinetobacter baumannii [7] was 1 µg/mL (≈ 1.71 µM) throughout. The molecule further yielded a Cmax in data set [10] of 630 ng/mL.
